Source: PMC8619434 (Viruses, 2021)
pIC50: −log10 of the molar value. Entries after “also recorded” stand apart in the source; their conditions may differ.

Tests used:
[1] = tested on: SARS-CoV-2 spike protein pseudovirus; experiment: microbe, parasite or virus in culture; format: cell-based
VSV-G pseudovirus = experiment: microbe, parasite or virus in culture; format: cell-based, vesicular stomatitis virus
[2] = tested on: SARS-CoV-2 spike protein pseudovirus; format: cell-based
[3] = tested on: SARS-CoV-2 spike protein pseudovirus; format: cell-based; remark: listed apart in the source
[4] = tested on: SARS-CoV-2 spike protein pseudovirus; format: cell-based; remark: listed apart in the source
[5] = within current drug treatment regimes; ref PubChem database; read-out: peak serum concentration (Cmax); cited from earlier work
in vitro = conditions: human, % Viability of SARS-2-Spike pv
SARS-CoV-1-S pseudovirus = format: cell-based
MERS-CoV-S pseudovirus = format: cell-based
[6] = tested on: SARS-CoV-2 spike protein pseudovirus; format: cell-based; remark: listed apart in the source
[7] = tested on: SARS-CoV-2 spike protein pseudovirus; format: cell-based; remark: listed apart in the source
[8] = tested on: SARS-CoV-2 spike protein pseudovirus; conditions: Caco-2

| Compound | activity at 10 µM ([1]; 293T/ACE2, 48 h, read-out: % Infectivity of SARS-2-Spike pv) [%] | pIC50 ([1]; 293T/ACE2, read-out: IC50 of SARS-CoV-2-S pseudovirus infectivity) | activity at 10 µM (VSV-G pseudovirus; Pseudovirus, 293T/ACE2, read-out: % Infectivity of VSV-G pv) [%] | % infectivity, drug added at 1 hpi (post-entry) [2] | % infectivity in attachment assay [3] | % infectivity of SARS-CoV-2 pseudovirus in Calu3 cells [4] | Cmax [5] [nM] | viability (in vitro) [%] | % Infectivity of SARS-2-Spike pv [1] | % Infectivity of VSV-G pv (VSV-G pseudovirus) | inhibition of SARS-CoV-1-S pseudovirus infection (SARS-CoV-1-S pseudovirus) | inhibition of MERS-CoV-S pseudovirus infection (MERS-CoV-S pseudovirus) | inhibition of SARS-CoV-2 pseudovirus infection of Vero cells [6] | inhibition of SARS-CoV-2 pseudovirus infection of A549-ACE2 cells [7] | inhibition of SARS-CoV-2 pseudovirus infection of Caco2 cells [8] |
| --- | --- | --- | --- | --- | --- | --- | --- | --- | --- | --- | --- | --- | --- | --- | --- |
| CN(C)CC/C=C1/c2ccccc2Sc2ccc(Cl)cc21 [chlorprothixene] | 5 | 5.71 | 48 | 45% | did not inhibit virus attachment | 44% | 1400 | 97 |  |  |  |  |  |  |  |
| CC(C)OC(=O)OCOP(=O)(CO[C@H](C)Cn1cnc2c(N)ncnc21)OCOC(=O)OC(C)C.O=C(O)/C=C/C(=O)O [tenofovir, tenofovir disoproxil fumarate] |  |  |  | complete inhibition |  | complete inhibition |  |  | completely inhibited | potently inhibited; also recorded: completely inhibited | completely inhibited | completely inhibited | complete inhibition | complete inhibition | complete inhibition |
